In test [1] the test system is sptA promoter (PsptA), ScuR/SarF system. Put plainly: Luciferase (luxAB) promoter activity of PsptA with exogenous synthetic peptides. In kind it is cell-based, Streptococcus salivarius HSISS4. As to the method: (§1) Overnight precultures were diluted at a final OD600 of 0.05. A volume of 300 μl of culture samples was incubated in the wells of a sterile covered white microplate with a transparent bottom (Greiner, Alphen a/d Rijn, The Netherlands) for 75 min at 37° C. and then supplemented with synthetic peptides (1 μM, except if otherwise stated) or DMSO, and xylose where required. Growth (OD600) and luciferase (Lux) activity (expressed in relative light units) was monitored at 10 min intervals during 24 h in a multi-wells plate reader (Hidex Sense, Hidex, Turku, Finland) as previously described (Fontaine et al., 2013).

Test [2] concerns S. salivarius producer strains; indicator strain Lactococcus lactis IL1403. The experiment in a line: Bacteriocin detection assay (spot-on lawn, multilayer). In kind it is cell-based, Streptococcus salivarius. The settings on record: FIG. 5B. On the procedure: The spot-on lawn (multilayer) detection method was performed as followed: 10 μl of overnight cultures of producer strains were diluted in fresh M17G medium and grown to reach mid-log phase (OD600=˜0.5). In parallel, we casted plates with a bottom feeding layer (M17G 1.5% agar) supplemented with a synthetic peptide where required. Next, we mixed 100 μl of an overnight culture of Lactococcus lactis IL1403 (indicator strain) in pre-warmed soft M17G medium (0.3% agar) and casted it as a top layer. Finally, we incubated mid-log phase cultures for 30 minutes with the corresponding synthetic peptides and spotted 3 μl of the producer strains on the top layer. Plates were incubated overnight before analysis of the inhibition zones surrounding the producer colonies.

A further test concerns comS promoter (PcomS). The experiment in a line: Luciferase (luxAB) promoter activity of PcomS with synthetic peptides. Type of test: cell-based, Streptococcus salivarius HSISS4. On the procedure:
as §1

Test [3] deals with S. salivarius HSISS4 derivatives. The experiment in a line: Competence development (natural transformation frequency). In kind it is cell-based, Streptococcus salivarius. On the procedure:
To induce competence, overnight CDMG precultures were diluted at a final OD600 of 0.05 in 300 μl (10 ml concerning the randomized peptide screen) of fresh CDMG and incubated 75 min at 37° C. Then, we added the pheromone sComS as well as DNA (overlapping PCRs or plasmids) and let the cells recover for 3 h at 37° C. before plating on M17G agar supplemented with antibiotics where required. Null-mutants were constructed by exchanging (double homologous recombination) the coding sequences (CDS) of target genes (sequence between start and stop codons) for either chloramphenicol or erythromycin resistance cassette. If stated, mutants were cleaned for the lox site-flanked resistance cassette, as previously described (Fontaine et al. Mol Microbiol 2010; 87:1113-1132). In case of deletion of multiple CDSs, the region between the start codon of the first CDS and the stop codon of the last CDS was deleted. Integration of the antibiotic resistance cassette at the right location was subsequently checked by PCR. The promoters of sptA genes was fused to the luxAB reporter genes and inserted with a chloramphenicol resistance cassette at the permissive tRNA threonine locus (HSISS4_r00061) by double homologous recombination. In case of ΔscuR and ΔsarF in-frame deletion, we used the two-step selection/counter-selection strategy previously described (Mignolet et al. Cell Rep 2018, 22:1627-1638). We transformed the wild-type strain with an overlapping PCR product composed of 4 fragments: (I) the upstream region of scuR or sarF genes, (II) the downstream region of scuR or sarF genes, (III) a cassette that includes the erythromycin resistance gene (erm) and a gene encoding the orotate transporter oroP, and finally (IV) the downstream region of scuR or sarF genes. We selected a first event of double recombination on medium supplemented with erythromycin. Next, we selected an intramolecular recombination between region (I) and (IV) that excises the erm-oroP cassette by growing cells on M17G supplemented with the toxic 5-fluoro-orotic acid (5-FOA) compound. In […] of oroP, 5-FOA is not able to cross the membrane and penetrate the cytoplasm where it is deleteriously incorporated in the nucleotide metabolic pathway (Overkamp et al., 2013). At final, we engineered an in-frame deletion mutant of scuR or sarF in which the first seven codons were fused to the last six codons without any cassette scar (see below for detailed cloning method).

In test [4] the test system is comX promoter (PcomX) and ComX-dependent promoters. Put plainly: Luciferase (luxAB) activity of PcomX and ComX-dependent late competence promoters. Type of test: cell-based, Streptococcus salivarius HSISS4. The settings on record: 1 μM; FIG. 9. As to the method:
as §1

Another test concerns ScuR. Put plainly: Mobility shift assay (EMSA) of promoter probes with purified ScuR and synthetic peptide. Conditions: FIG. 4A. In kind it is binding, Streptococcus salivarius. As to the method:
All double-stranded DNA fragments (30 or 40 bp) were obtained from annealing of single-stranded Cy3-labelled (at 5′ end) and unlabeled oligonucleotides. Typically, a gel shift reaction (20 μl) was performed in a binding buffer (20 mM Tris-HCl pH 8.0, 150 mM NaCl, 1 mM EDTA, 1 mM DTT, 10% glycerol, 1 mg ml-1 BSA) and contained 150 ng labelled probe and […] StrepTag proteins. When necessary, […] of ComS peptides (unless otherwise stated) are added. The reaction is incubated at 37° C. for 10 min prior to loading of the samples on a native TBE 5% gel. The gel is next subjected to 80 V for approximately 1 h in TBE buffer. DNA complexes were detected by fluorescence on the Ettan DIGE Imager with bandpass excitation filters (nm): 540/25 (Cy3) or 635/30 (Cy5) and bandpass emission filters: 595/25 (Cy3) or 680/30 (Cy5) (GE Healthcare, Waukesha, WI).
The PCR-amplified scuR-StrepTag and gene sarF-StrepTag were cloned into the pBAD-comR-ST vector (see supplemental information). The ComR-StrepTag, ScuR-StrepTag and SarF-StrepTag recombinant proteins were overproduced in E. coli and purified as previously described (Fontaine et al., 2013) in standard native conditions on Strep-Tactin agarose beads (IBA).
On the technique in general: A gel shift assay detects complexes by their altered migration in electrophoresis.

The test system of a further test is slvX promoter (PslvX). Put plainly: Luciferase (luxAB) promoter activity of PslvX with synthetic peptides. In kind it is cell-based, Streptococcus salivarius HSISS4. As to the method: as §1
Where [5] appears, read: WT background, dose response FIG. 3D.
[6] abbreviates: ΔscuR strain (SarF only), FIG. 3D.

Take “sBI7: synthetic peptide: last 8 amino acids of the clone BI7 peptide MIAILPFWLILG (sBI7)”: the “amplitude of PsptA response compared with PslvX and PcomS” value in test [1] (WT background, FIG. 3D) is reported as “highest amplitude”. Further, in test [1] (setting [5]), the “peptide concentration to which PsptA is responsive” value was “less than 1 nM”. Also, the “activity of all promoters (PsptA, PslvX, PcomS) in ΔsarF compared to WT” value in test [1] (ΔsarF strain, FIG. 3D) is on record as “slightly up compared to the WT”. For the same substance, the “SarF-mediated PsptA response” value in test [1] (ΔscuR strain, FIG. 3D) is “able to induce the SarF-mediated PsptA response”. In addition, in test [1] (ΔscuR-sarF, FIG. 3F), the “induction of sptA, comS and slvX promoters in ΔscuR-sarF double mutant” value is recorded as “utterly erased”. Also, the “halo of inhibition around producer strain” value in test [2] (WT strain, sBI7 concentration ranging from 1 nM to 1 μM, indicator L. lactis) is given as “small halo of inhibition”. Besides, the “halo of inhibition in mutant producer strains” value in test [2] (single ΔscuR, double ΔscuR-sarF or Δslv5 strains) is “eradicated”. In addition, the “amplitude of PcomS response compared with PsptA and PslvX” value in the test on comS promoter (PcomS) (WT background, FIG. 3D) is “lowest”. Moreover, the “peptide concentration to which PcomS is responsive” value in the test on comS promoter (PcomS) (setting [5]) is given as “less than 1 nM”. Moreover, in the test on comS promoter (PcomS) (setting [6]), the “PcomS activity upon sBI7 induction in ΔscuR” value is “no activity in ΔscuR”. Besides, in test [3] (Table 6), the “support of natural transformation” value is “ineffective to support natural transformation”. In addition, the “Competence development (transformation frequency)” value in test [3] (Wild-type strain, ratio of transformants (chloramphenicol-resistant CFU) to total CFU count per 0.1 ug of linear DNA) is reported as “ND (ND: not detected (<1.0E−08))”; in test [3] (ΔsarF strain, ratio of transformants to total CFU count per 0.1 ug of linear DNA), “ND (ND: not detected (<1.0E−08))”; in test [3] (ΔscuR strain, ratio of transformants to total CFU count per 0.1 ug of linear DNA), “ND (ND: not detected (<1.0E−08))”. Moreover, in test [4], the “activation of comX and late competence genes under direct ComX control” value was “cannot activate”. In addition, the “ScuR·sBI7 affinity for PcomS and PslvX in comparison to sComS-bound ComR” value with ScuR was “appears weaker with a less stable complex”. In the test on ScuR (ScuR 4 μM, peptide 2:2 dilutions from 20 μM), the “peptide concentration from which ScuR shifts the PsptA probe” value is on record as ≥ 0.08 nM. Also, the “ScuR affinity for PcomS probe” value with ScuR (with sBI7) is “weakest affinity”. Also, the “ScuR affinity for PsptA probe” value with ScuR (with sBI7) is “strongest one”. The “peptide concentration to which PslvX is responsive” value with slvX promoter (PslvX) (setting [5]) is “less than 1 nM”. Besides, the “PslvX activity upon sBI7 induction in ΔscuR” value in the test with slvX promoter (PslvX) (setting [6]) is on record as “no activity in ΔscuR”.

The values are drawn from patent publication US12234299B2, “Peptides for inducing bacteriocin synthesis and methods to identify and/or select and/or optimize the same” (SYNGULON S.A., priority 2018, dated 2025).
